Holding throughout (format): biochemical
Assay [1] has as its target Human Factor XIIa (Homo sapiens (Human), UniProt P00748). Description: Determination of FXIIa inhibition (fluorogenic substrate H-DPro-Phe-Arg-AFC, IC50 assay). The note with it: substrate H-DPro-Phe-Arg-AFC at Km, 25° C.; class scale A-G. A digest of the protocol: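 Human FXIIa incubated at 25° C with fluorogenic substrate H-DPro-Phe-Arg-AFC at its Km concentration and varying compound concentrations. Fluorescence release monitored over 5 min at 25° C; linear rate expressed as % of uninhibited activity to derive IC50.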

Assay [2] has as its target Plasma Kallikrein (Homo sapiens (Human), UniProt P03952). The assay is described as follows: Determination of related protease inhibition: Plasma Kallikrein (fluorogenic substrate at Km). The note with it: 25° C., read-out: IC50 (human PKal). A digest of the protocol: (§1)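 Human enzymes incubated with varied inhibitor concentrations and fluorogenic substrate at Km. Fluorescence release followed over 5 min at 25 °C; linear rate expressed as % activity, IC50 as inhibitor concentration giving 50% inhibition of uninhibited enzyme.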

The target in assay [3] is KLK1 (Homo sapiens (Human), UniProt P06870). Description: Determination of related protease inhibition: KLK1 (fluorogenic substrate at Km). Particulars: 25° C. A digest of the protocol: as §1
Chain of KLK1 (P06870 25-262): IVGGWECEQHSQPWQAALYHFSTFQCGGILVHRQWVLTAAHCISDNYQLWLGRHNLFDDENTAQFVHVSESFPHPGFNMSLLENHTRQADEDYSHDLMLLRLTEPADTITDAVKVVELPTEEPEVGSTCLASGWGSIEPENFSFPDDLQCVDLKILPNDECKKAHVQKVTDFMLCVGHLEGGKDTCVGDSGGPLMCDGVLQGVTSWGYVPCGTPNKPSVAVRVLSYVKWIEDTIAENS
Assay [4] deals with FXa (Homo sapiens (Human), UniProt P00742). Description: Determination of related protease inhibition: FXa (fluorogenic substrate at Km). The note with it: 25° C. The method, then:
(§2) Determination of Related Protease Inhibition
(§3) In vitro inhibition of related proteases was determined using an ([…] assay based on standard literature methods (see e.g. Shori et al., Biochem. Pharmacol., 1992, 43, 1209; Bouckaert et al., European Journal of Medicinal Chemistry 110 (2016) 181). Human serine protease enzymes Plasma Kallikrein, KLK1, FXa, Plasmin, Thrombin and Trypsin were assayed for enzymatic activity using an appropriate fluorogenic substrate at Km concentration, FXIa at fixed substrate concentration of 100 μM, and various concentrations of the test compound. Protease activity was measured by monitoring the accumulation of liberated fluorescence from the substrate over […]. The linear rate of fluorescence increase per minute was expressed as percentage (%) activity. IC50 values were calculated as the concentration of inhibitor giving 50% inhibition of the uninhibited enzyme activity (100%).

Assay [5] addresses Thrombin (Homo sapiens (Human), UniProt P00734). The assay is described as follows: Determination of related protease inhibition: Thrombin (fluorogenic substrate at Km). The note with it: 25° C. The method, then: as §2, §3

Chain of Plasma Kallikrein (P03952 391-638): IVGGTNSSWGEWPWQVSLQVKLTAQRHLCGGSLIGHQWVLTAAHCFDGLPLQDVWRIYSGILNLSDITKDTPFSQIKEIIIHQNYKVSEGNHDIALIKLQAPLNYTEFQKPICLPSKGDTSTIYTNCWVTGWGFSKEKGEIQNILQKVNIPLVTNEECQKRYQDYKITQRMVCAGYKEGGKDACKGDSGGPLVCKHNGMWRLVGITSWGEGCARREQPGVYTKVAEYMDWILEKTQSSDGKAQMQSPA
Chain of Plasma Kallikrein (P03952 20-390 partner): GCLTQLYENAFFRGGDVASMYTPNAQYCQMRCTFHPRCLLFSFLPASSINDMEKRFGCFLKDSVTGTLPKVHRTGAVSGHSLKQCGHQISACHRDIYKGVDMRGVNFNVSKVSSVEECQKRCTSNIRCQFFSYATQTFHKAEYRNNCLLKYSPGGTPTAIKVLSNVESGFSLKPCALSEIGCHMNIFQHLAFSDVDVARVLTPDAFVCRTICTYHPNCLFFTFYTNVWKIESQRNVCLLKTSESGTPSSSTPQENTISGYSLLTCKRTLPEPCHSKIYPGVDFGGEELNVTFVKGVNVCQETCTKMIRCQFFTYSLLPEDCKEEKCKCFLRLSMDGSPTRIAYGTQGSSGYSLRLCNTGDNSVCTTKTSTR
Chain of FXa (P00742 235-488): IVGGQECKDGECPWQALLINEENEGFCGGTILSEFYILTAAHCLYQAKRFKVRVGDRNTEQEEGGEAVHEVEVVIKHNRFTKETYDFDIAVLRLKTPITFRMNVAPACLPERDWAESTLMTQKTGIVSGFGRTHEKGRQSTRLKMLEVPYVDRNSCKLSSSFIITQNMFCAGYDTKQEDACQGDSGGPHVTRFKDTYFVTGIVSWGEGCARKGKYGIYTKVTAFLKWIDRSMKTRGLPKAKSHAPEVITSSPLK
Chain of FXa (P00742 41-179 partner): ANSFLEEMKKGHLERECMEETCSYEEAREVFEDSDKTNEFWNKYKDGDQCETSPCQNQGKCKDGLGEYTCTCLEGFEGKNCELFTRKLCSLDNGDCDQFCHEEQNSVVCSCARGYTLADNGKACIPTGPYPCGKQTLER
Chain of Human Factor XIIa (P00748 373-615): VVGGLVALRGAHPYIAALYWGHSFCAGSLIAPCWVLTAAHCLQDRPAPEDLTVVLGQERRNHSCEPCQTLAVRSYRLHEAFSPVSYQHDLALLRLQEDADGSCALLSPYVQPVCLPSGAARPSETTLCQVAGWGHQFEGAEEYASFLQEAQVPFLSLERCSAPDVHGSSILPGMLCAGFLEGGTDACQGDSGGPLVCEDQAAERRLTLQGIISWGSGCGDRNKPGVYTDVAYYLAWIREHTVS

On to `Nc1ncc(Cl)c2cc(NCc3ccc(CCN4CCOCC4)cc3F)ccc12` [Example 2215, 4-chloro-6-N-({2-fluoro-4-[2-(morpholin-4-yl)ethyl]phenyl}methyl)isoquinoline-1,6-diamine], for which the IC50 in assay [1] was 10 to 40 µM; in assay [2], over 40 µM; in assay [3], 10 to 40 µM; in assay [4], over 40 µM; in assay [5], over 40 µM.
Regarding `CN1CCC(CNc2ccc(CNc3cncc4[nH]ccc34)cn2)CC1` [Example 1213, N-((6-(((1-methylpiperidin-4-yl)methyl)amino)pyridin-3-yl)methyl)-1H-pyrrolo[2,3-c]pyridin-4-amine], the IC50 in assay [1] is 3 to 10 µM; in assay [2] it was 10 to 40 µM; in assay [3], over 100 µM; in assay [4] it was over 40 µM; in assay [5], 10 to 40 µM.
As for `CN1CC2CC1CC2COc1cc(CNc2ccc3c(N)nccc3c2)ccn1` (stereo not shown) [Example 4277, N6-((2-((2-methyl-2-azabicyclo[2.2.1]heptan-5-yl)methoxy)pyridin-4-yl)methyl)isoquinoline-1,6-diamine], the IC50 in assay [1] lay in the range of 0.1 to 0.3 µM; in assay [2], 3 to 10 µM; in assay [3], 1 to 3 µM; in assay [4] it was 0.3 to 1 µM; in assay [5], 1 to 3 µM.
Turning to `Nc1nccc2cc(NCc3ccnc(-c4cccc(CN5CCCC5)c4)c3)ccc12` [Example 4434, 6-N-({2-[3-(pyrrolidin-1-ylmethyl)phenyl]pyridin-4-yl}methyl)isoquinoline-1,6-diamine], the IC50 in assay [1] is 0.1 to 0.3 µM; in assay [2], over 40 µM; in assay [3], 3 to 10 µM; in assay [4], 3 to 10 µM; in assay [5], over 40 µM.
Consider `Nc1nccc2c(NCc3ccnc(OCC4CCn5c(nnc5C(F)F)C4)c3)cccc12` (stereo not shown) [Example 4467, N5-((2-((3-(difluoromethyl)-5,6,7,8-tetrahydro-[1,2,4]triazolo[4,3-a]pyridin-7-yl)methoxy)pyridin-4-yl)methyl)isoquinoline-1,5-diamine], for which the IC50 in assay [1] was 0.1 to 0.3 µM; in assay [2] it was over 40 µM; in assay [3], 3 to 10 µM; in assay [4] it was 10 to 40 µM; in assay [5], 10 to 40 µM.
Regarding `CN1CCC(COc2cc(CNc3cccc4c(N)nccc34)cc(C(F)(F)F)n2)CC1` [Example 4281, 5-N-[[2-[(1-methyl-4-piperidyl)methoxy]-6-(trifluoromethyl)-4-pyridyl]methyl]isoquinoline-1,5-diamine], the IC50 is 0.3 to 1 µM in assay [1]; over 40 µM in assay [2]; 3 to 10 µM in assay [3]; over 40 µM in assay [4]; over 40 µM in assay [5].
For the compound `Nc1nccc2c(NCc3ccc(N4CCn5c(nnc5C(F)(F)F)C4)nc3)cccc12` [Example 1275, N5-((6-(3-(trifluoromethyl)-5,6-dihydro-[1,2,4]triazolo[4,3-a]pyrazin-7(8H)-yl)pyridin-3-yl)methyl)isoquinoline-1,5-diamine], the IC50 in assay [1] is 0.3 to 1 µM; in assay [2] it was over 40 µM; in assay [3], 3 to 10 µM; in assay [4], over 40 µM; in assay [5], over 40 µM.
On to `Cn1ccnc1CCCOc1ncc(CNc2cccc3c(N)nccc23)cn1` [Example 1035, N5-((2-(3-(1-methyl-1H-imidazol-2-yl)propoxy)pyrimidin-5-yl)methyl)isoquinoline-1,5-diamine], for which the IC50 was 3 to 10 µM in assay [1]; over 40 µM in assay [2]; 10 to 40 µM in assay [3]; over 40 µM in assay [4]; over 40 µM in assay [5].
With `CN1CCC(CNc2cc(CNc3ccc4c(N)nccc4c3)ccn2)CC1` [Example 4284, 6-N-[(2-{[(1-methylpiperidin-4-yl)methyl]amino}pyridin-4-yl)methyl]isoquinoline-1,6-diamine], the IC50 lay within 0.1 to 0.3 µM in assay [1]; 10 to 40 µM in assay [2]; 1 to 3 µM in assay [3]; 0.3 to 1 µM in assay [4]; 10 to 40 µM in assay [5].
As to `CC(=O)N1CC2CC1CC2COc1cc(CNc2ccc3c(N)nccc3c2)ccn1` (stereo not shown) [Example 4275, 1-(5-(((4-(((1-aminoisoquinolin-6-yl)amino)methyl)pyridin-2-yl)oxy)methyl)-2-azabicyclo[2.2.1]heptan-2-yl)ethan-1-one], the IC50 in assay [1] lay in the range of 1 to 3 µM; in assay [2], 10 to 40 µM; in assay [3], 1 to 3 µM; in assay [4], 0.3 to 1 µM; in assay [5], 0.3 to 1 µM.
In the case of `CN1CCC(COc2cc(CNc3nccc4c(N)ccnc34)ccn2)CC1` [Example 4273, N8-((2-((1-methylpiperidin-4-yl)methoxy)pyridin-4-yl)methyl)-1,7-naphthyridine-4,8-diamine], the IC50 was 3 to 10 µM in assay [1]; over 40 µM in assay [2]; 10 to 40 µM in assay [3]; 3 to 10 µM in assay [4]; over 40 µM in assay [5].
As to `CN1CC2CCC(C1)C2COc1cc(CNc2ccc3c(N)nccc3c2)ccn1` (stereo not shown) [Example 4270, N6-((2-((3-methyl-3-azabicyclo[3.2.1]octan-8-yl)methoxy)pyridin-4-yl)methyl)isoquinoline-1,6-diamine], the IC50 was in the range of 0.01 to 0.1 µM in assay [1]; 3 to 10 µM in assay [2]; 0.3 to 1 µM in assay [3]; 0.01 to 0.1 µM in assay [4]; 1 to 3 µM in assay [5].
Consider `Cc1cc(NCc2ccnc(OCC3CCN(C)CC3)c2)cc2ccncc12` [Example 4464, 8-methyl-N-((2-((1-methylpiperidin-4-yl)methoxy)pyridin-4-yl)methyl)isoquinolin-6-amine], for which the IC50 in assay [1] was 1 to 3 µM; in assay [2] it was over 20 µM; in assay [3], 3 to 10 µM; in assay [4], over 100 µM; in assay [5] it was over 4 µM.
For `CN1CCC(NC(=O)c2cc(CNc3cccc4c(N)nccc34)ccn2)CC1` [Example 4289, 4-(((1-aminoisoquinolin-5-yl)amino)methyl)-N-(1-methylpiperidin-4-yl)picolinamide], in that order: 0.3 to 1 µM, over 40 µM, 10 to 40 µM, over 40 µM and over 40 µM.
In the case of `CN1CCC(CNc2ccc(CNc3ccc4cnccc4c3F)cn2)CC1` [Example 1224, 5-fluoro-N-((6-(((1-methylpiperidin-4-yl)methyl)amino)pyridin-3-yl)methyl)isoquinolin-6-amine], the IC50 was 3 to 10 µM in assay [1]; over 40 µM in assay [2]; over 40 µM in assay [3]; over 40 µM in assay [4]; over 100 µM in assay [5].
On to `COc1nnc2n1CCN(c1ccc(CNc3cccc4c(N)nccc34)cn1)C2` [Example 1250, N5-((6-(3-methoxy-5,6-dihydro-[1,2,4]triazolo[4,3-a]pyrazin-7(8H)-yl)pyridin-3-yl)methyl)isoquinoline-1,5-diamine], for which the IC50 in assay [1] was 1 to 3 µM; in assay [2], over 40 µM; in assay [3], 3 to 10 µM; in assay [4], over 40 µM; in assay [5] it was over 40 µM.
As for `Cc1cc2c(NCc3ccc(NCC4CCN(C)CC4)nc3)ccnc2[nH]1` [Example 1202, 2-Methyl-N-((6-(((1-methylpiperidin-4-yl)methyl)amino)pyridin-3-yl)methyl)-1H-pyrrolo[2,3-b]pyridin-4-amine], the IC50 in assay [1] was 0.1 to 0.3 µM; in assay [2], over 40 µM; in assay [3], over 40 µM; in assay [4], 10 to 40 µM; in assay [5] it was 10 to 40 µM.

Usually IC50 stands for the concentration needed to halve the response being measured.
